According to patent US9586986B2, “Substituted 7-deazapurine ribonucleosides for therapeutic uses” (Institute of Organic Chemistry and Biochemistry ASCR, v.v.i., priority 2014, dated 2017):
Where two headings read alike, the source gives them in different places.

Key:
Assay type in all cases: cell-based
[1] = test system: Huh-7 cells harboring replicon 1B; experiment: Cytotoxicity in replicon 1B cells; conditions: HCV subtype 1B replicon
Method: (§1) Compounds were also tested in Huh-7 cells harboring sub-genomic reporter replicons derived from HCV subtypes 1B and 2A (ref.: Stuyver, L. J.; Whitaker, T.; McBrayer, T. R.; Hernandez-Santiago, B. I.; Lostia, S.; Tharnish, P. M.; Ramesh, M.; Chu, C. K.; Jordan, R.; Shi, J. X.; Rachakonda, S.; Watanabe, K. A.; Otto, M. J.; Schinazi, R. F. Antimicrob. Agents Chemother. 2003, 47, 244-254).

[2] = test system: HCV subtype 1B replicon in Huh-7 cells; experiment: HCV sub-genomic reporter replicon assay, subtype 1B; conditions: Hepatitis C virus
Method: as §1

HL60 = experiment: XTT cytotoxicity assay, HL-60; conditions: Homo sapiens, read-out: XTT, IC50 HL60
Method: (§2) HL-60, Hela S3 and HepG2 cell lines (ATCC) were grown in RPMI-1640 or DMEM medium supplemented with 10% fetal calf serum, […] of streptomycin, 200 U/mL of penicillin G and 4 mM glutamine in a humidified atmosphere containing 5% CO2 at 37° C. Sensitivity of these cell lines to the synthesized compounds was assessed with the use of XTT cell proliferation kit II (Roche Diagnostics GmbH, Mannheim, Germany) according to the manufacturer's instructions. Briefly, cells were seeded in a 96-well plate at a density of 10,000 cells per well (90 μL). After 24 h, 10 μL of the tested compounds were added to the culture media at desired concentration range and incubated for 72 h. After that 50 μL of the XTT solution was added (1 mg/mL XTT+0.383 mg/mL N-methyl dibenzopyrazine methyl sulfate). The absorbance was recorded at 495 nm following a 2 h-incubation with the dye. IC50 values were determined by non-linear regression method using GraphPad Prism version 5.00 for Windows (GraphPad Software, La Jolla, Calif., USA).
(§3) In addition, the anti-proliferative effect was tested against a human T-lymphoblastic leukemia line CCRF-CEM, promyelocytic leukemia HL-60 and cervical carcinoma HeLa S3 growing in liquid suspension. Cell viability was determined following a 3-day incubation using 2,3-bis-(2-methoxy-4-nitro-5-sulfophenyl)-2H-tetrazolium-5-carboxanilide (XTT) assay (ref.: Scudiero, D. A.; Shoemaker, R. H.; Paull, K. D.; Monks, A.; Tierney, S.; Nofziger, T. H.; Currens, M. J.; Seniff, D.; Boyd M. R. Evaluation of a Soluble Tetrazolium/Formazan Assay for Cell Growth and Drug Sensitivity in Culture Using Human and Other Tumor Cell Lines. Cancer Res. 1988, 48, 4827-4833).

HCT116 = experiment: Cytostatic/cytotoxic MTT assay, HCT116; conditions: Homo sapiens, read-out: MTT, IC50 HCT116
Text: Unless otherwise stated, all cells were purchased from the […] (ATCC). The CCRF-CEM line is derived from T lymphoblastic leukemia, evincing high chemosenzitivity, K562 represent cells from a […] patient sample with bcr-abl translocation, HCT116 is colorectal tumor cell line and its p53 gene knock-down counterpart (HCT116p53−/−, Horizon Discovery, UK) is a model of human cancers with p53 inactivation frequently associated with poor prognosis, A549 cell line is lung adenocarcinoma. The daunorubicin resistant subline of CCRF-CEM cells (CEM-DNR bulk) and paclitaxel resistant subline K562-TAX were selected in our laboratory by cultivation of maternal cell lines in increasing concentrations of daunorubicine or paclitaxel, respectively. The CEM-DNR cells overexpress mrp-1 and mdr-1 genes, while K562-TAX cells overexpress mdr-1 only. Both proteins belong to the family of ABC transporters and are involved in the primary and/or acquired multidrug resistance phenomenon (ref.: Gottesman, M. M.; Fojo, T.; Bates, S. E. Multidrug resistance in cancer: role of ATP-dependent transporters. Nat. Rev. Cancer. 2002, 2, 48-58. (b) Noskova, V.; Dzubak, P.; Kuzmina, G.; Ludkova, A.; Stehlik, D.; Trojanec, R.; Janostakova, A.; Korinkova, G.; Mihal, V.; Hajduch, M. In vitro chemoresistance profile and expression/function of MDR associated proteins in resistant cell lines derived from CCRF-CEM, K562, A549 and MDA MB 231 parental cells. Neoplasma 2002, 49, 418-425). Non-malignant MRC-5 and BJ cells, derived from normal human fibroblasts, were used as controls. The cells were maintained in Nunc/Corning 80 cm^2 plastic tissue culture flasks and cultured in cell culture medium (DMEM/RPMI 1640 with 5 g/L glucose, 2 mM glutamine, 100 U/mL penicillin, 100 µg/mL streptomycin, 10% fetal calf serum, and NaHCO3). Cell suspensions were prepared and diluted according to the particular cell type and the expected target cell density (25,000-30,000 cells/well based on cell growth characteristics). Cells were added by pipette (80 L) into 96-well microtiter plates. Inoculates were allowed a pre-incubation period of 24 h at 37° C. and 5% CO2 for stabilization. Four-fold dilutions, in 20-L aliquots, of the intended test concentration were added to the microtiter plate walls at time zero. All test compound concentrations were examined in duplicate. Incubation of the cells with the test compounds lasted for 72 h at 37° C., in a 5% CO2 atmosphere at 100% humidity. At the end of the incubation period, the cells were assayed using MTT. Aliquots (10 L) of the MTT stock solution (5 mg/ml) were pipetted into each well and incubated for another 1-4 h. After this incubation period the formazan produced was dissolved by addition of 100 µL/well of 10% aq SDS (pH 5.5), followed by a further incubation at 37° C. overnight. The optical density was measured at 540 nm. The IC50 value, the drug concentration inhibiting the cell growth by 50%, was calculated from appropriate dose-response curves.
In vitro cytotoxic/cytostatic activity final nucleosides 1-5 was initially evaluated against […] cell lines derived from human solid tumors including lung (A549 cells) and colon (HCT116 and HCT116p53−/−) carcinomas, as well as leukemia cell lines (CCRF-CEM, CEM-DNR, K562 and K562-TAX) and, for comparison, non-malignant BJ and MRC-5 fibroblasts. Concentrations inhibiting the cell growth by 50% (IC50) were determined using a quantitative metabolic staining with 3-(4,5-dimethylthiazol-2-yl)-2,5-diphenyltetrazolium bromide (MTT) (ref.: Denizot, F.; Lang, R. Rapid colorimetric assay for cell growth and survival: Modifications to the tetrazolium dye procedure giving improved sensitivity and reliability. J. Immunol. Meth. 1986, 89, 271-277) following a 3-day treatment.
Multidrug resistance is a major therapeutic problem in cancer chemotherapy. […]

HeLa S3 = experiment: XTT cytotoxicity assay, HeLa S3; conditions: Homo sapiens, read-out: XTT, IC50 HeLa S3
Method: as §2, §3

HepG2 = experiment: XTT cytotoxicity assay, HepG2; conditions: Homo sapiens, read-out: XTT, IC50 HepG2
Method: as §2

[3] = Huh-7 cells, HCV subtype 1B replicon, read-out: Replicon 1B EC50

Row | SMILES | CC50 [1] | EC50 ([2]; Huh-7, read-out: Replicon 1B EC50) | IC50 (HL60; HL-60, 72 h) | IC50 (HCT116; HCT-116, 72 h) | IC50 (HeLa S3; HeLa S3, 72 h) | IC50 (HepG2; HepG2, 72 h) | EC50 [2, 3] | IC50 (HL60; HL-60, 72 h incubation) | IC50 (HCT116; HCT-116, 72 h incubation) | IC50 (HeLa S3; HeLa S3, 72 h incubation) | IC50 (HepG2; HepG2, 72 h incubation)
1 | Cc1ncnc2c1ccn2[C@@H]1O[C@H](CO)[C@@H](O)[C@H]1O [RC5, 4-Methyl-7-(β-D-ribofuranosyl)-7H-pyrrolo[2,3-d]pyrimidine, reference compound] | 0.23 µM | 0.02 µM | 0.02 µM | 0.03 µM | 0.02 µM | 0.06 µM |  |  |  |  | 
2 | COc1ncnc2c1c(I)cn2[C@@H]1O[C@H](CO)[C@@H](O)[C@H]1O [Compound 1h, 5-iodo-4-methoxy-7-(β-D-ribofuranosyl)-7H-pyrrolo[2,3-d]pyrimidine, reference compound] | > 44 µM |  |  |  |  |  | > 44 µM | 2.3 µM | > 20 µM | 14.3 µM | > 20 µM
3 | CSc1ncnc2c1c(-c1ccsc1)cn2[C@@H]1O[C@H](CO)[C@@H](O)[C@H]1O [Compound 2d, 4-Methylsulfanyl-7-(β-D-ribofuranosyl)-5-(thiophen-3-yl)-7H-pyrrolo[2,3-d]pyrimidine] | > 44 µM |  |  |  |  |  | 10.9 µM | 4.59 µM | > 20 µM | > 20 µM | > 15 µM
4 | CNc1ncnc2c1c(-c1cc3ccccc3o1)cn2[C@@H]1O[C@H](CO)[C@@H](O)[C@H]1O [Compound 3f, 5-(Benzofuran-2-yl)-4-methylamino-7-(β-D-ribofuranosyl)-7H-pyrrolo[2,3-d]pyrimidine] | > 44 µM |  |  |  |  |  | 2.05 µM | 8.95 µM | > 20 µM | > 20 µM | > 20 µM
5 | CSc1ncnc2c1c(-c1cccs1)cn2[C@@H]1O[C@H](CO)[C@@H](O)[C@H]1O [Compound 2c, 4-Methylsulfanyl-7-(β-D-ribofuranosyl)-5-(thiophen-2-yl)-7H-pyrrolo[2,3-d]pyrimidine] | > 44 µM |  |  |  |  |  | 5.42 µM | 1.13 µM | > 20 µM | 1.96 µM | > 20 µM
6 | CN(C)c1ncnc2c1c(-c1cc3ccccc3o1)cn2[C@@H]1O[C@H](CO)[C@@H](O)[C@H]1O [Compound 4f, 5-(Benzofuran-2-yl)-4-dimethylamino-7-(β-D-ribofuranosyl)-7H-pyrrolo[2,3-d]pyrimidine] | > 44 µM |  |  |  |  |  | 19.2 µM | > 20 µM | > 20 µM | > 20 µM | > 20 µM
7 | COc1ncnc2c1c(-c1cc3ccccc3o1)cn2[C@@H]1O[C@H](CO)[C@@H](O)[C@H]1O [Compound 1f, 5-(Benzofuran-2-yl)-4-methoxy-7-(β-D-ribofuranosyl)-7H-pyrrolo[2,3-d]pyrimidine] | > 44 µM |  |  |  |  |  | 2.64 µM | 4.47 µM | 13.8 µM | 9.24 µM | > 20 µM
8 | Cc1ncnc2c1c(-c1cc3ccccc3o1)cn2[C@@H]1O[C@H](CO)[C@@H](O)[C@H]1O [Compound 5f, 5-(Benzofuran-2-yl)-4-methyl-7-(β-D-ribofuranosyl)-7H-pyrrolo[2,3-d]pyrimidine] | > 44 µM |  |  |  |  |  | 6.76 µM | > 20 µM | > 20 µM | > 20 µM | > 20 µM
9 | CNc1ncnc2c1c(-c1ccsc1)cn2[C@@H]1O[C@H](CO)[C@@H](O)[C@H]1O [Compound 3d, 4-Methylamino-7-(β-D-ribofuranosyl)-5-(thiophen-3-yl)-7H-pyrrolo[2,3-d]pyrimidine] | > 44 µM |  |  |  |  |  | > 44 µM | > 20 µM | > 20 µM | > 20 µM | > 20 µM
10 | CN(C)c1ncnc2c1ccn2[C@@H]1O[C@H](CO)[C@@H](O)[C@H]1O [RC4, reference compound] | > 44 µM |  |  |  |  |  | 0.27 µM | 0.87 µM | 18.4 µM | 10.6 µM | 1.81 µM
11 | C#Cc1cn([C@@H]2O[C@H](CO)[C@@H](O)[C@H]2O)c2ncnc(OC)c12 [Compound 1g, 5-Ethynyl-4-methoxy-7-(β-D-ribofuranosyl)-7H-pyrrolo[2,3-d]pyrimidine] | > 44 µM |  |  |  |  |  | 0.18 µM | 0.19 µM | 4.06 µM | 1.73 µM | 12.7 µM
12 | C#Cc1cn([C@@H]2O[C@H](CO)[C@@H](O)[C@H]2O)c2ncnc(SC)c12 [Compound 2g, 5-Ethynyl-4-methylsulfanyl-7-(β-D-ribofuranosyl)-7H-pyrrolo[2,3-d]pyrimidine] | > 44 µM |  |  |  |  |  | 0.21 µM | 0.05 µM | 0.03 µM | 0.11 µM | > 15 µM
13 | CN(C)c1ncnc2c1c(-c1ccccc1)cn2[C@@H]1O[C@H](CO)[C@@H](O)[C@H]1O [Compound 4e, 4-Dimethylamino-5-phenyl-7-(β-D-ribofuranosyl)-7H-pyrrolo[2,3-d]pyrimidine] | > 44 µM |  |  |  |  |  | 26.9 µM | > 20 µM | > 20 µM | > 20 µM | > 20 µM
14 | CSc1ncnc2c1c(I)cn2[C@@H]1O[C@H](CO)[C@@H](O)[C@H]1O [Compound 2h, 5-Iodo-4-methylsulfanyl-7-(β-D-ribofuranosyl)-7H-pyrrolo[2,3-d]pyrimidine] | > 44 µM |  |  |  |  |  | 19.2 µM | 0.05 µM | > 20 µM | 0.25 µM | > 20 µM
